Values of other authors, collected in patent US11389520B2, “Modified tetra-acylated neisserial LPS” (priority 2016, dated 2022).

Molecular target: human TLR4/MD-2 complex (Homo sapiens, UniProt O00206+Q9Y6Y9)
Sequence (O00206 24-839): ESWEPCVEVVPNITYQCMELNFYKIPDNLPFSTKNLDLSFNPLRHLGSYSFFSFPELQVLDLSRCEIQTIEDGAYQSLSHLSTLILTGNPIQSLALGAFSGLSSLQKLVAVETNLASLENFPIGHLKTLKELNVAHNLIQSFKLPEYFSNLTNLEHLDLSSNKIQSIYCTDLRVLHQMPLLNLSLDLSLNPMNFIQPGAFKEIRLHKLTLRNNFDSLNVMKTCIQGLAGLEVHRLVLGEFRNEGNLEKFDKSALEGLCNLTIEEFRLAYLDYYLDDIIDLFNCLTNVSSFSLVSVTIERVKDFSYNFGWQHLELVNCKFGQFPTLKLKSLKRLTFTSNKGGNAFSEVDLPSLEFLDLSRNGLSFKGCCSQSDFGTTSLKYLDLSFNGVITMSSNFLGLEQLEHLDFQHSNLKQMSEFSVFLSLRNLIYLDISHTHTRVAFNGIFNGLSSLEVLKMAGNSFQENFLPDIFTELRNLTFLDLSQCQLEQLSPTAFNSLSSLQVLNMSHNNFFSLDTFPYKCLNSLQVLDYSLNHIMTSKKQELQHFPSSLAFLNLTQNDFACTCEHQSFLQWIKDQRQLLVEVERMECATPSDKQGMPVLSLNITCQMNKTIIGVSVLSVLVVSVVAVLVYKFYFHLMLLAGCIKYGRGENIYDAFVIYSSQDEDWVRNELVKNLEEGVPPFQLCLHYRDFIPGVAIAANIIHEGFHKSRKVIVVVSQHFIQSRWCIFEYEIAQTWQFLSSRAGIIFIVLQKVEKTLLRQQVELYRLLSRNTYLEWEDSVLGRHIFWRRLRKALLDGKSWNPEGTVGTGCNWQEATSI
Sequence (Q9Y6Y9 17-160 limits assumed): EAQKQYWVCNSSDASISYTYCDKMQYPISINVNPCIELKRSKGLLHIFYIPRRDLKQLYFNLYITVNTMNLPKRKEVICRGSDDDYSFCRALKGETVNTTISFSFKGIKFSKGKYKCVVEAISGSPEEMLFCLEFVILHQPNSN

CCCCCCCCCCC[C@@H](O)CC(=O)N[C@H]1[C@H](OC[C@H]2O[C@H](OP(=O)(O)O)[C@H](NC(=O)C[C@H](O)CCCCCCCCCCC)[C@@H](OC(=O)C[C@H](O)CCCCCCCCCCC)[C@@H]2O)O[C@H](CO)[C@@H](OP(=O)(O)O)[C@@H]1OC(=O)C[C@H](O)CCCCCCCCCCC [lipid IVa]
Action on the human TLR4/MD-2 complex: antagonist
